Two molecules from US9107918B2, “Method for determining sensitivity to irinotecan and use thereof” (Kabushiki Kaisha Yakult Honsha, priority 2009, dated 2015) can be followed below.

Holding throughout (assay type): cell-based, human
Test [1] deals with squamous cell lung cancer cell line LC-S. Briefly: MTT growth inhibition, LC-S. The settings on record: LC-S cells, 72 hours drug exposure. As for the experimental part:
(§1) The sensitivity, to irinotecan and SN-38, of the 19 cultured human tumor cell lines which had been subjected to comprehensive gene expression analysis was determined through the MTT (methylthiazol tetrazolium bromide) method. Specifically, 4×10^3 cells/well of each cell line and 80 μL/well of culture medium (10% fetal serum-added RPMI1640 medium) were added to each well of a 96-well microplate (Nunclon; Nunc, Roskilde, Denmark), and culturing was performed for 24 hours in an incubator at 37° C. under 5% CO2. Thereafter, the culture medium (10% fetal serum-added RPMI1640 medium) was renewed, and SN-38 or irinotecan was added thereto at various concentrations. Culturing was further performed for 72 hours in an incubator at 37° C. under 5% CO2. […] By means of a microplate reader (Maxline Microplate Reader, Molecular Devices, Sunnyvale, Calif.), absorbance at 570 to 650 nm was measured. An average absorbance of wells of culture medium was subtracted from the absorbance of each well of the drug-treatment group, and the obtained values of the wells were averaged. Similarly, the average absorbance of wells of culture medium was subtracted from the absorbance of each well of the control group (non-drug-treatment group), and the obtained values of the wells were averaged. […]

Test [2] deals with lung adenocarcinoma cell line PC-9. Briefly: MTT growth inhibition, PC-9. The following applies: PC-9 cells, 72 hours drug exposure. As for the experimental part: as §1
Test [3] deals with lung adenocarcinoma cell line PC-14. In words: MTT growth inhibition, PC-14. The settings on record: PC-14 cells, 72 hours drug exposure. As for the experimental part:
as §1

Test [4] concerns colon cancer cell line HCC-50. Briefly: MTT growth inhibition, HCC-50. The settings on record: HCC-50 cells, 72 hours drug exposure. As for the experimental part: as §1
For test [5], the system named is acquired CDDP resistant cell line PC-14/CDDP. In words: MTT growth inhibition, PC-14/CDDP. The settings on record: PC-14/CDDP cells, 72 hours drug exposure. As for the experimental part: as §1
In test [6] the test system is acquired SN-38 resistant cell line PC-6/SN2-5. Briefly: MTT growth inhibition, PC-6/SN2-5. The settings on record: PC-6/SN2-5 cells, 72 hours drug exposure. As for the experimental part:
as §1

The test system of test [7] is gastric cancer cell line MKN45. In words: MTT growth inhibition, MKN45. The following applies: MKN45 cells, 72 hours drug exposure. As for the experimental part:
as §1

In test [8] the test system is colon cancer cell line COLO201. Briefly: MTT growth inhibition, COLO201. The settings on record: COLO201 cells, 72 hours drug exposure. As for the experimental part: as §1
Test [9] deals with acquired CDDP (cisplatin) resistant cell line PC-9/CDDP. Briefly: MTT growth inhibition, PC-9/CDDP. The settings on record: PC-9/CDDP cells, 72 hours drug exposure. As for the experimental part:
as §1

The subject of test [10] is gastric cancer cell line HSC-42. Briefly: MTT growth inhibition, HSC-42. The following applies: HSC-42 cells, 72 hours drug exposure. As for the experimental part: as §1
In test [11] the test system is small-cell lung cancer cell line PC-6. Briefly: MTT growth inhibition, PC-6. The following applies: PC-6 cells, 72 hours drug exposure. As for the experimental part: as §1
In test [12] the test system is colon cancer cell line COLO320DM. Briefly: MTT growth inhibition, COLO320DM. The following applies: COLO320DM cells, 72 hours drug exposure. As for the experimental part:
as §1

Test [13] has as its system myelogenous leukemia cell line K562. Briefly: MTT growth inhibition, K562. The settings on record: K562 cells, 72 hours drug exposure. As for the experimental part: as §1
Test [14] concerns esophageal cancer cell line HEC-46. In words: MTT growth inhibition, HEC-46. The following applies: HEC-46 cells, 72 hours drug exposure. As for the experimental part:
as §1

Test [15] has as its system acquired multidrug resistant cell line K562/DOX. Briefly: MTT growth inhibition, K562/DOX. The following applies: K562/DOX cells, 72 hours drug exposure. As for the experimental part:
as §1

In test [16] the test system is oral epithelium epidermal cancer cell line KB. Briefly: MTT growth inhibition, KB. The settings on record: KB cells, 72 hours drug exposure. As for the experimental part:
as §1

The subject of test [17] is acquired CPT-11 resistant cell line PC-6/DQ2-2. Briefly: MTT growth inhibition, PC-6/DQ2-2. The settings on record: PC-6/DQ2-2 cells, 72 hours drug exposure. As for the experimental part:
as §1

The subject of test [18] is colon cancer cell line HCC-48. Briefly: MTT growth inhibition, HCC-48. The settings on record: HCC-48 cells, 72 hours drug exposure. As for the experimental part: as §1
Test [19] has as its system lung adenocarcinoma cell line A549. Briefly: MTT growth inhibition, A549. The settings on record: A549 cells, 72 hours drug exposure. As for the experimental part: as §1
Setting [20] is: Homo sapiens, read-out: 50% Growth inhibitory concentration (IC50) determined by MTT method.

Where a name gives a salt, the structure may show the parent alone.

With `CCc1c2c(nc3ccc(OC(=O)N4CCC(N5CCCCC5)CC4)cc13)-c1cc3c(c(=O)n1C2)COC(=O)[C@]3(O)CC` [Irinotecan, Irinotecan hydrochloride], the IC50 in test [1] (setting [20]) was found to be 18.9 µg/mL; in [2] (setting [20]), 2.75 µg/mL; in [3] (setting [20]), 4.67 µg/mL; in test [4] (setting [20]), 5.11 µg/mL; in test [5] (setting [20]), 4.03 µg/mL; in test [6] (setting [20]), 2.85 µg/mL. The IC50 came out at 0.809 µg/mL in test [7] (Homo sapiens, MKN-45, read-out: 50% Growth inhibitory concentration (IC50) determined by MTT method); 0.979 µg/mL in [8] (Homo sapiens, COLO 201, read-out: 50% Growth inhibitory concentration (IC50) determined by MTT method); 2.68 µg/mL in test [9] (setting [20]); 0.743 µg/mL in [10] (setting [20]); 0.691 µg/mL in test [11] (setting [20]); 1.78 µg/mL in test [12] (Homo sapiens, COLO 320DM, read-out: 50% Growth inhibitory concentration (IC50) determined by MTT method). Moreover, the IC50 worked out at 2.3 µg/mL in [13] (setting [20]); 7.79 µg/mL in [14] (setting [20]); 3.93 µg/mL in test [15] (setting [20]); 2.23 µg/mL in test [16] (setting [20]); 4.26 µg/mL in test [17] (setting [20]); 1.11 µg/mL in [18] (setting [20]). Also, in [19] (setting [20]), the IC50 is 5.63 µg/mL.
Regarding `CCc1c2c(nc3ccc(O)cc13)-c1cc3c(c(=O)n1C2)COC(=O)[C@]3(O)CC` [SN-38, 7-ethyl-10-hydroxycamptothecin], the “50% Growth inhibitory concentration (IC50) determined by MTT method” value (“50% Growth inhibitory concentration” for short) stood at 0.13707 µg/mL in [1]; 0.00817 µg/mL in test [2]; 0.01116 µg/mL in [3]; 0.02227 µg/mL in test [4]; 0.00626 µg/mL in test [5]; 0.0244 µg/mL in test [6]. Besides, the “50% Growth inhibitory concentration” value in [7] turned out to be 0.0026 µg/mL; in [8], 0.00284 µg/mL; in test [9] it was 0.00905 µg/mL; in test [10], 0.00281 µg/mL; in test [11], 0.00291 µg/mL; in test [12], 0.00343 µg/mL. Further, the “50% Growth inhibitory concentration” value in test [13] stood at 0.00284 µg/mL; in [14] it was 0.03482 µg/mL; in test [15] it was 0.0041 µg/mL; in [16], 0.00526 µg/mL; in test [17], 0.09735 µg/mL; in test [18], 0.00199 µg/mL. Moreover, the “50% Growth inhibitory concentration” value in test [19] was found to be 0.02523 µg/mL.
